Data on 22 molecules can be found in patent US10899754B2, “Modulators of indoleamine 2,3-dioxygenase” (GLAXOSMITHKLINE INTELLECTUAL PROPERTY DEVELOPMENT LIMITED, priority 2016, dated 2021).

Holding throughout (type): cell-based
The test system of data set [1] is human peripheral blood mononuclear cells (PBMC). The data set can be described thus: PBMC cytotoxicity assay (CellTiter-Glo). The following applies: 2 days, pCC50. The procedure, abridged: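 Human PBMC (50,000 cells/well) stimulated with IFN-γ 100 ng/ml and LPS 50 ng/ml were exposed to 11-point 3-fold compound dilutions for 2 days at 37 °C, 5% CO2. Viability read by CellTiter-Glo ATP luminescence and normalized to no-cell and stimulated-DMSO controls. XC50 derived by four-parameter fit.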
On the technique in general: ATP-based viability assays read luminescence as a measure of living cells.

For data set [2], the system named is human epithelial HeLa cells. The data set can be described thus: HeLa cytotoxicity assay (CellTiter-Glo). The following applies: pCC50. The procedure, abridged:
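HeLa cells (5,000/well) stimulated with 10 nM IFN-γ, exposed to 11-point 3-fold compound dilutions for 2 days at 37 °C; viability by CellTiter-Glo ATP luminescence. Normalized to cell-free (100% cytotoxicity) and stimulated-cell DMSO (0%) controls; four-parameter fit gives pCC50.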

For data set [3], the target named is T1, indoleamine 2, 3-dioxygenase (IDO1) (Homo sapiens, UniProt P14902). The data set can be described thus: IDO1 PBMC RapidFire MS assay (kynurenine detection by mass spectrometry). Also noted: to induce the expression of indoleamine 2, 3-dioxygenase (IDO1); host or cells: human PBMC stimulated with IFN-gamma and LPS. The following applies: human PBMC stimulated with IFN-γ and LPS, 2 days, pIC50, read-out: PBMC PXC50 (converted). The procedure, abridged:
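PBMCs (50,000 cells/well) stimulated with IFN-γ 100 ng/ml plus LPS 50 ng/ml, treated with 11-point 3-fold compound series for 2 days at 37° C. Supernatant kynurenine measured by RapidFire MS, normalised to internal standard; parallel cytotoxicity by CellTiter-Glo luminescence; curves fitted for XC50.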

Data set [4] addresses T1, indoleamine 2, 3-dioxygenase (IDO1). The data set can be described thus: IDO1 HeLa RapidFire MS assay (kynurenine detection by mass spectrometry). The following applies: HeLa cells, pIC50, read-out: IDO1_HELA_PXC50 (converted). The arrangement: to induce the expression of indoleamine 2, 3-dioxygenase (IDO1). The gist of the method:
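Compound potency reported as pIC50 from kynurenine/internal-standard ratio (RapidFire MS) in supernatant of IFN-γ-induced (10 nM) HeLa cells, 5,000 per well, after 2 days' treatment with 11-point dilutions. Cytotoxicity in the same format by luminescent ATP detection, reported as pCC50.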

Molecules are shown by their SMILES.

T1 sequence (P14902 whole entry): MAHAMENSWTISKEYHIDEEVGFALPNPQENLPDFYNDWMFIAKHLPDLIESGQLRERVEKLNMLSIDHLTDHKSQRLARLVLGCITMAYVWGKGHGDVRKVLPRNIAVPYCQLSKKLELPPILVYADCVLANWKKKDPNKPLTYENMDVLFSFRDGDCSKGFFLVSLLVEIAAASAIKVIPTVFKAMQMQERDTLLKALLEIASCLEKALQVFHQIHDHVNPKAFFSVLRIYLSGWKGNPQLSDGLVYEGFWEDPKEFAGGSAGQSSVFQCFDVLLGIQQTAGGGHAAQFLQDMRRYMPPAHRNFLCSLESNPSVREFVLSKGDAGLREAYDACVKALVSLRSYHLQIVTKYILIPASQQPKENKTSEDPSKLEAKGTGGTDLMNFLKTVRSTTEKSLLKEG

For the molecule `CC(C)CN(c1ccc(-c2ccccc2C(=O)O)cc1Nc1cccc(Cl)n1)C1CCCCC1` [example 266, 3′-[(6-chloropyridin-2-yl)amino]-4′-[cyclohexyl(2-methylpropyl)amino]-[1,1′-biphenyl]-2-carboxylic acid], in data set [1], the “PBMC TOX PXC50” value is on record as under 5. The molecule further had an HELA_IDO1_TOX_PXC50 in data set [2] of under 5. Besides, the IC50 in data set [3] is 63.1 nM; in data set [4], 200 nM.
Regarding `CC(C)CN(c1ccc(C(C)CC(=O)O)cc1NC1=N[C@@H](c2ccccc2)CO1)C1CCCCC1` (stereo partly drawn) [example 153, 3-{4-[cyclohexyl(2-methylpropyl)amino]-3-{[(4S)-4-phenyl-4,5-dihydro-1,3-oxazol-2-yl]amino}phenyl}butanoic acid], in data set [1], the “PBMC TOX PXC50” value is on record as under 5. Further, the HELA_IDO1_TOX_PXC50 in data set [2] is under 5. Further, the IC50 was 2000 nM in data set [3] and 3980 nM in data set [4].
Take `CC(C)CN(c1ccc([C@H](C)CC(=O)O)cc1Nc1cnc(C(F)(F)F)nc1)C1CCOCC1` [Example 9, (R)-3-(4-(isobutyl(tetrahydro-2H-pyran-4-yl)amino)-3-((2-(trifluoromethyl)pyrimidin-5-yl)amino)phenyl)butanoic Acid]: the “PBMC TOX PXC50” value in data set [1] is on record as under 5. This molecule also returned an HELA_IDO1_TOX_PXC50 in data set [2] of under 5. The IC50 in data set [3] is 1 nM; in data set [4] it was 2.51 nM.
On to `CC(C)CN(c1ccc(C(C)CC(=O)O)cc1NC1=N[C@@H](C(F)(F)F)CS1)C1CCCCC1` (stereo partly drawn) [example 154, 3-{4-[cyclohexyl(2-methylpropyl)amino]-3-{[(4S)-4-(trifluoromethyl)-4,5-dihydro-1,3-thiazol-2-yl]amino}phenyl}butanoic acid], for which, in data set [1], the “PBMC TOX PXC50” value is under 5. Also, the HELA_IDO1_TOX_PXC50 in data set [2] is recorded as under 5. Besides, the IC50 in data set [3] is 20 nM; in data set [4] it was 31.6 nM.
Regarding `CC(C)CN(c1ccc([C@H](C)CC(=O)O)cc1NC1CCCC1)C1CCCCC1` [example 179, (3R)-3-{4-[cyclohexyl(2-methylpropyl)amino]-3-(cyclopentylamino)phenyl}butanoic acid], in data set [2], the HELA_IDO1_TOX_PXC50 is given as under 5. The IC50 is 126 nM in data set [3] and 251 nM in data set [4].
Consider `CC(C)CN(CC(C)C)c1ccc(C(C)CC(=O)O)cc1Nc1nc(N2CCCC2)ns1.O=C(O)C(F)(F)F` (stereo not shown) [example 118, 3-{4-[bis(2-methylpropyl)amino]-3-{[3-(pyrrolidin-1-yl)-1,2,4-thiadiazol-5-yl]amino}phenyl}butanoic acid], for which the “PBMC TOX PXC50” value in data set [1] is on record as under 4.3. Further, the HELA_IDO1_TOX_PXC50 in data set [2] was under 4.3. For the same molecule, the IC50 in data set [4] is 5010 nM.
In data set [2], `CC(C)CN(c1ccc(C2CC2C(=O)O)cc1Nc1nc(C(F)(F)F)ns1)C1CCCCC1` (single isomer, unassigned) [Example 105, 2-(4-(cyclohexyl(isobutyl)amino)-3-((3-(trifluoromethyl)-1,2,4-thiadiazol-5-yl)amino)phenyl)cyclopropanecarboxylic Acid] returned an HELA_IDO1_TOX_PXC50 of under 5. Moreover, the IC50 in data set [3] is 3.16 nM; in data set [4] it was 6.31 nM.
In the case of `CC(C)CN(CC(C)C)c1ccc(C(C)CC(=O)O)cc1Nc1nc(N2CCOCC2)ns1.O=C(O)C(F)(F)F` (stereo not shown) [example 117, 3-{4-[bis(2-methylpropyl)amino]-3-{[3-(morpholin-4-yl)-1,2,4-thiadiazol-5-yl]amino}phenyl}butanoic acid], the “PBMC TOX PXC50” value in data set [1] is recorded as under 4.3. In data set [2], the HELA_IDO1_TOX_PXC50 was under 4.3. Also, in data set [4], the IC50 is 3980 nM.
On to `CC(C)CN(CC(C)C)c1ccc(C(C)CC(=O)O)cc1Nc1nc(N2CCN(C)CC2)ns1` (stereo not shown) [example 116, 3-{4-[bis(2-methylpropyl)amino]-3-{[3-(4-methylpiperazin-1-yl)-1,2,4-thiadiazol-5-yl]amino}phenyl}butanoic acid], for which the “PBMC TOX PXC50” value in data set [1] is listed as under 4.3. For the same molecule, in data set [2], the HELA_IDO1_TOX_PXC50 is listed as under 4.3. The IC50 in data set [4] is 39800 nM.
As for `CC(C)CN(c1ccc(-c2ccccc2C(=O)O)cc1Nc1nc(C(F)(F)F)ns1)C1CCN(C)CC1` [example 274, 4′-[(1-methylpiperidin-4-yl)(2-methylpropyl)amino]-3′-{[3-(trifluoromethyl)-1,2,4-thiadiazol-5-yl]amino}-[1,1′-biphenyl]-2-carboxylic acid], the HELA_IDO1_TOX_PXC50 in data set [2] is under 5. In addition, in data set [4], the IC50 is 1000 nM.
The matching figures for `CC(C)CN(CC(C)C)c1ccc(C(C)CC(=O)O)cc1Nc1nnc(N)s1` (stereo not shown) [example 208, 3-{3-[(5-amino-1,3,4-thiadiazol-2-yl)amino]-4-[bis(2-methylpropyl)amino]phenyl}butanoic acid]: under 5 and 1580 nM.
`CC(C)CN(CC(C)C)c1ccc(C(C)CC(=O)O)cc1Nc1nc(C2CC2)cs1` (stereo not shown) [example 141, 3-{4-[bis(2-methylpropyl)amino]-3-[(4-cyclopropyl-1,3-thiazol-2-yl)amino]phenyl}butanoic acid] returned an HELA_IDO1_TOX_PXC50 in data set [2] of under 5. In addition, the IC50 in data set [4] was 794 nM.
With `CC(C)CN(CC(C)C)c1ccc(-c2ccccc2C(=O)O)cc1Nc1nc2ccccc2o1` [example 293, 3′-[(1,3-benzoxazol-2-yl)amino]-4′-[bis(2-methylpropyl)amino]-[1,1′-biphenyl]-2-carboxylic acid], the HELA_IDO1_TOX_PXC50 in data set [2] was under 5. Besides, in data set [4], the IC50 was 631 nM.
For `CC(C)CN(c1ccc(-c2ccncc2C(=O)O)cc1Nc1nc2ccccc2o1)C1CCCCC1` [example 281, 4-{3-[(1,3-benzoxazol-2-yl)amino]-4-[cyclohexyl(2-methylpropyl)amino]phenyl}pyridine-3-carboxylic acid], in that order: under 5 and 100 nM.
The molecule `CC(C)CN(c1ccc(-c2cccnc2C(=O)O)cc1Nc1nc(Cl)ns1)C1CCOCC1` [example 270, 3-{3-[(3-chloro-1,2,4-thiadiazol-5-yl)amino]-4-[(2-methylpropyl)(oxan-4-yl)amino]phenyl}pyridine-2-carboxylic acid] returned an HELA_IDO1_TOX_PXC50 in data set [2] of under 5. Besides, the IC50 in data set [4] was 1580 nM.
On to `CC(C)CN(CC(C)C)c1ccc(C(C)CC(=O)O)cc1Nc1nc2ccccc2n1C` (stereo not shown) [example 119, 3-{4-[bis(2-methylpropyl)amino]-3-[(1-methyl-1H-1,3-benzodiazol-2-yl)amino]phenyl}butanoic acid], for which, in data set [1], the “PBMC TOX PXC50” value is listed as under 4.3. Moreover, the HELA_IDO1_TOX_PXC50 in data set [2] was under 4.3. Moreover, the IC50 in data set [4] was 1260 nM.
`COCc1ccc(Nc2cc(C(C)CC(=O)O)ccc2N(CC(C)C)CC(C)C)nc1` (stereo not shown) [example 193, 3-{4-[bis(2-methylpropyl)amino]-3-{[5-(methoxymethyl)pyridin-2-yl]amino}phenyl}butanoic acid] registered an HELA_IDO1_TOX_PXC50 in data set [2] of under 5. The IC50 in data set [4] was 100 nM.
In the case of `Cc1nnc(Nc2cc([C@H](C)CC(=O)O)ccc2N(CC(C)C)CC(C)C)s1` [example 186, (3R)-3-{4-[bis(2-methylpropyl)amino]-3-[(5-methyl-1,3,4-thiadiazol-2-yl)amino]phenyl}butanoic acid], in data set [2], the HELA_IDO1_TOX_PXC50 is on record as under 5. In data set [4], the IC50 was 79.4 nM.
For `CC(C)CN(c1ccc(-c2ccccc2C(=O)O)cc1Nc1nc(C(=O)O)ns1)C1CCCCC1` [example 275, 5-({2′-carboxy-4-[cyclohexyl(2-methylpropyl)amino]-[1,1′-biphenyl]-3-yl}amino)-1,2,4-thiadiazole-3-carboxylic acid], in that order: under 5 and 6310 nM.
`CC(C)CN(c1ccc(C(C)CC(=O)O)cc1Nc1nc2ccccn2n1)C1CCCCC1` (stereo not shown) [example 145, 3-{4-[cyclohexyl(2-methylpropyl)amino]-3-({[1,2,4]triazolo[1,5-a]pyridin-2-yl)amino)phenyl}butanoic acid] came in with an HELA_IDO1_TOX_PXC50 in data set [2] of under 5. The IC50 in data set [4] was 794 nM.
The matching figures for `CC(=O)N1CCC(Nc2cc(C(C)CC(=O)O)ccc2N(CC(C)C)C2CCCCC2)C1` (stereo not shown) [example 135, 3-{3-[(1-acetylpyrrolidin-3-yl)amino]-4-[cyclohexyl(2-methylpropyl)amino]phenyl}butanoic acid]: under 5 and 3980 nM.
Consider `CC(C)CN(c1ccc(-c2ccccc2C(=O)O)cc1Nc1nc(C(F)(F)F)ns1)C1CCN(C(=O)OC(C)(C)C)CC1` [example 273, 4′-({1-[(tert-butoxy)carbonyl]piperidin-4-yl)-(2-methylpropyl)amino)-3′-{[3-(trifluoromethyl)-1,2,4-thiadiazol-5-yl]amino}-[1,1′-biphenyl]-2-carboxylic acid], for which the HELA_IDO1_TOX_PXC50 in data set [2] is under 5. Moreover, the IC50 in data set [4] is 7.94 nM.
